System: Hs578T multi-cell spheroids, viability
Assay: Anticancer human tumor Hs578T cell line growth inhibition [IpAb];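 note: drug exposure lasted 7 days before readout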
Settings: for IC50: curve of first compound; for viability, T/C: stronger effect = lower value
From the text: Combinatorial screen of targeted agents with ipatasertib and abemaciclib in multi-cell type tumor spheroids
A high-throughput screen of multi-cell type tumor spheroids was designed to identify active combinations of targeted small molecules and ipatasertib or abemaciclib. Complex spheroids include a stromal component modeled by human endothelial cells (HUVEC) and fibroblasts modeled by human mesenchymal stem cells (MSCs). The concentration ranges selected for each drug and investigational agent were based upon clinically achievable concentrations if the clinical Cmax of the agent was known.
Compounds. The drugs and investigational agents: ipatasertib (NSC767898), abemaciclib(NSC768073), selumetinib (NSC741078), trametinib (758246), adavosertib (NSC754352), everolimus (NSC733504), sapanisertib (NSC764658), vemurafenib (NSC761431), venetoclax (NSC766270), copanlisib (NSC809693), apelisib (NSC765974), palbociblib (NSC758247), vemurafenib (NSC761431), dabrafenib (NSC764134), ravoxertinib (NSC781343), BMS-387032 (NSC767048), sotorasib (NSC818433), talazoparib (NSC767125) and afursertib (NSC778305), were obtained from the National Cancer Institute (NCI) Developmental Therapeutics Program Chemical Repository. The FDA-approved anticancer drug set is available from the NCI Developmental Therapeutics Program. […] The stock solutions were prepared in dimethyl sulfoxide (DMSO, Sigma-Aldrich, St. Louis, MO, cat. D2650) at 800-fold the tested concentration and stored at -70 degrees C prior to their use. All drugs and investigational agents were tested over a range starting from a high concentration at or near the clinical Cmax and decreasing in half-log increments. If the clinical Cmax for an agent had not been determined, the highest concentration tested was 10 microM.
NCI60 Cell Culture. NCI60 cell lines were obtained from the NCI Developmental Therapeutics Program Tumor Repository. For each lot of cells, the Repository performed Applied Biosystems AmpFLSTR Identifiler testing with PCR amplification to confirm consistency with the published Identifier STR profile for each cell line. Cells were kept in continuous culture for no more than 20 passages. The optimal seeding densities for each of the cell lines at each time point assessed were determined prior to performing the concentration response studies. Briefly, the NCI60 human tumor lines were grown as monolayers in RPMI 1640 medium supplemented with 10% FBS and 2 mmol/L L-glutamine.
An additional 9 lines were from the NCI60 cell line panel including MDA-MB-231 breast carcinoma, MDA-MB-468 breast carcinoma, MCF7 breast carcinoma, Hs578T breast carcinoma, MALME-3M melanoma, SK-MEL-2 melanoma, SK-OV-3 ovarian carcinoma, DU-145 prostate carcinoma, PC-3 prostate carcinoma, all cell lines along with major genetic alterations are listed on Table 2. Pooled donor human umbilical vein endothelial cells (HUVEC, Lonza, cat. CC-2519) and human mesenchymal stem cells (hMSC, Lonza, cat. PT-2501) were purchased from Lonza (Walkersville, MD).
PDMR cell lines were grown in complete medium (DC medium): Dulbecco's modified Eagle's medium (DMEM)/F12 supplemented with 5% fetal bovine serum (FBS), 2 mM L-glutamine, 100 U/mL penicillin and 100 µg/ml streptomycin, 0.4 µg/ml hydrocortisone, 10 ng/ml epidermal growth factor (EGF) recombinant human protein, 24 µg/mL adenine, and 0.1 mg/mL primocin. During culture from frozen stock vials, PDMR cells were cultured in the same medium containing 10 µM Y-27632 (see Table 3). The PDCs were cultured in complete DMEM/F12 media without 10 microM Y-27632 dihydrochloride for at least two passages prior to the screen. The pooled donor HUVEC and hMSC were cultured in endothelial cell growth medium 2 (PromoCell, Heidelberg, Germany, cat. C-22011) and mesenchymal stem cell growth medium 2 (PromoCell, cat. C-28009), respectively. For all experiments, HUVEC and hMSC were used at passages </=5.
[…]

C=CCn1c(=O)c2cnc(Nc3ccc(N4CCN(C)CC4)cc3)nc2n1-c1cccc(C(C)(C)O)n1 + CC(C)NCC(C(=O)N1CCN(c2ncnc3c2C(C)CC3O)CC1)c1ccc(Cl)cc1
IC50 (second compound 0.1 µM): 280 nM | IC50 (second compound 0.316 µM): 221 nM | IC50 (second compound 1 µM): 129 nM | IC50 (second compound 3.16 µM): 39.4 nM | IC50 (second compound 10 µM): < 31.6 nM | viability, T/C (second compound 0.1 µM, first compound 0.0316 µM): 103% | viability, T/C (second compound 0.1 µM, first compound 0.1 µM): 74.2% | viability, T/C (second compound 0.1 µM, first compound 0.316 µM): 49.4% | viability, T/C (second compound 0.1 µM, first compound 1 µM): 26.9% | viability, T/C (second compound 0.1 µM, first compound 3.16 µM): 20.5% | viability, T/C (second compound 0.1 µM, first compound 10 µM): 19.2% | viability, T/C (second compound 0.316 µM, first compound 0.0316 µM): 74.1% | viability, T/C (second compound 0.316 µM, first compound 0.1 µM): 62.9% | viability, T/C (second compound 0.316 µM, first compound 0.316 µM): 44.3% | viability, T/C (second compound 0.316 µM, first compound 1 µM): 27.6% | viability, T/C (second compound 0.316 µM, first compound 3.16 µM): 22.8% | viability, T/C (second compound 0.316 µM, first compound 10 µM): 16.7% | viability, T/C (second compound 1 µM, first compound 0.0316 µM): 64.9% | viability, T/C (second compound 1 µM, first compound 0.1 µM): 54.7% | viability, T/C (second compound 1 µM, first compound 0.316 µM): 35.7% | viability, T/C (second compound 1 µM, first compound 1 µM): 25.7% | viability, T/C (second compound 1 µM, first compound 3.16 µM): 25.8% | viability, T/C (second compound 1 µM, first compound 10 µM): 17.6% | viability, T/C (second compound 3.16 µM, first compound 0.0316 µM): 51.2% | viability, T/C (second compound 3.16 µM, first compound 0.1 µM): 44.4% | viability, T/C (second compound 3.16 µM, first compound 0.316 µM): 29.1% | viability, T/C (second compound 3.16 µM, first compound 1 µM): 23.7% | viability, T/C (second compound 3.16 µM, first compound 3.16 µM): 20.5% | viability, T/C (second compound 3.16 µM, first compound 10 µM): 11.9% | viability, T/C (second compound 10 µM, first compound 0.0316 µM): 49.2% | viability, T/C (second compound 10 µM, first compound 0.1 µM): 37.2% | viability, T/C (second compound 10 µM, first compound 0.316 µM): 22.6% | viability, T/C (second compound 10 µM, first compound 1 µM): 21% | viability, T/C (second compound 10 µM, first compound 3.16 µM): 16.3% | viability, T/C (second compound 10 µM, first compound 10 µM): 5.72%

Cn1cnc2c(F)c(Nc3ccc(Br)cc3Cl)c(C(=O)NOCCO)cc21 + CC(C)NCC(C(=O)N1CCN(c2ncnc3c2C(C)CC3O)CC1)c1ccc(Cl)cc1
IC50 (second compound 0.1 µM): 2310 nM | IC50 (second compound 0.316 µM): 1200 nM | IC50 (second compound 1 µM): 400 nM | IC50 (second compound 3.16 µM): 123 nM | IC50 (second compound 10 µM): 26.5 nM | viability, T/C (second compound 0.1 µM, first compound 0.00949 µM): 96.2% | viability, T/C (second compound 0.1 µM, first compound 0.03 µM): 91.8% | viability, T/C (second compound 0.1 µM, first compound 0.0949 µM): 85.3% | viability, T/C (second compound 0.1 µM, first compound 0.3 µM): 84.2% | viability, T/C (second compound 0.1 µM, first compound 0.949 µM): 74.8% | viability, T/C (second compound 0.1 µM, first compound 3 µM): 42.8% | viability, T/C (second compound 0.316 µM, first compound 0.00949 µM): 87.7% | viability, T/C (second compound 0.316 µM, first compound 0.03 µM): 86.2% | viability, T/C (second compound 0.316 µM, first compound 0.0949 µM): 83.4% | viability, T/C (second compound 0.316 µM, first compound 0.3 µM): 64.9% | viability, T/C (second compound 0.316 µM, first compound 0.949 µM): 58% | viability, T/C (second compound 0.316 µM, first compound 3 µM): 30.4% | viability, T/C (second compound 1 µM, first compound 0.00949 µM): 77% | viability, T/C (second compound 1 µM, first compound 0.03 µM): 72% | viability, T/C (second compound 1 µM, first compound 0.0949 µM): 63.1% | viability, T/C (second compound 1 µM, first compound 0.3 µM): 54.4% | viability, T/C (second compound 1 µM, first compound 0.949 µM): 39.2% | viability, T/C (second compound 1 µM, first compound 3 µM): 19.3% | viability, T/C (second compound 3.16 µM, first compound 0.00949 µM): 53.8% | viability, T/C (second compound 3.16 µM, first compound 0.03 µM): 52.2% | viability, T/C (second compound 3.16 µM, first compound 0.0949 µM): 47.9% | viability, T/C (second compound 3.16 µM, first compound 0.3 µM): 49.4% | viability, T/C (second compound 3.16 µM, first compound 0.949 µM): 35.2% | viability, T/C (second compound 3.16 µM, first compound 3 µM): 12.4% | viability, T/C (second compound 10 µM, first compound 0.00949 µM): 52.6% | viability, T/C (second compound 10 µM, first compound 0.03 µM): 50.1% | viability, T/C (second compound 10 µM, first compound 0.0949 µM): 42.2% | viability, T/C (second compound 10 µM, first compound 0.3 µM): 43.1% | viability, T/C (second compound 10 µM, first compound 0.949 µM): 23.2% | viability, T/C (second compound 10 µM, first compound 3 µM): 5.18%
